Assays:
[1] = target: T1, Phospho-EGFR (Tyr1068) in H1975 cells (Homo sapiens, UniProt P00533, L858R/T790M); assay: HTRF pEGFR/total EGFR in H1975 cells; format: cell-based; conditions: ratio pEGFR/total EGFR, compound 3 hours
T1 construct: host or cells: H1975
Procedure: (§1) H1975 cells (ATCC CRL-5908) were plated at 20,000 cells per well in 96 well plates and placed at 37° C. 5% CO2. Once adhered (after 24 h) cells were treated with compounds dissolved in DMSO at a final concentration of 0.1% DMSO in media. Compounds were diluted in media then added to cells for 3 hours in duplicate. Compound and media were removed from the cells, then 50 ul of HTRF lysis buffer is added (lysis buffer was diluted from 4× stock to 1× in DI water, with 1% blocking agent also added). Cells were lysed on a plate shaker (2000 rpm) for 30 minutes at room temperature. pEGFR expression was monitored using the Cisbio Phospho-EGFR (Tyri068) cellular kit (64EG1PEH). Total EGFR expression was monitored using the Cisbio Total EGFR cellular kit (64NG1PEH) as per manufacturer's instructions. Fluorescence emission was read at two different wavelengths (665 nm and 620 nm) on a PheraStar. Results were calculated as ratio of pEGFR/total EGFR and then percentage of 0 μM control.

[2] = target: CtermHisTag-mEGFR Wild type (Homo sapiens, UniProt P00533); assay: biochemical
CtermHisTag-mEGFR Wild type, sequence (P00533 whole entry): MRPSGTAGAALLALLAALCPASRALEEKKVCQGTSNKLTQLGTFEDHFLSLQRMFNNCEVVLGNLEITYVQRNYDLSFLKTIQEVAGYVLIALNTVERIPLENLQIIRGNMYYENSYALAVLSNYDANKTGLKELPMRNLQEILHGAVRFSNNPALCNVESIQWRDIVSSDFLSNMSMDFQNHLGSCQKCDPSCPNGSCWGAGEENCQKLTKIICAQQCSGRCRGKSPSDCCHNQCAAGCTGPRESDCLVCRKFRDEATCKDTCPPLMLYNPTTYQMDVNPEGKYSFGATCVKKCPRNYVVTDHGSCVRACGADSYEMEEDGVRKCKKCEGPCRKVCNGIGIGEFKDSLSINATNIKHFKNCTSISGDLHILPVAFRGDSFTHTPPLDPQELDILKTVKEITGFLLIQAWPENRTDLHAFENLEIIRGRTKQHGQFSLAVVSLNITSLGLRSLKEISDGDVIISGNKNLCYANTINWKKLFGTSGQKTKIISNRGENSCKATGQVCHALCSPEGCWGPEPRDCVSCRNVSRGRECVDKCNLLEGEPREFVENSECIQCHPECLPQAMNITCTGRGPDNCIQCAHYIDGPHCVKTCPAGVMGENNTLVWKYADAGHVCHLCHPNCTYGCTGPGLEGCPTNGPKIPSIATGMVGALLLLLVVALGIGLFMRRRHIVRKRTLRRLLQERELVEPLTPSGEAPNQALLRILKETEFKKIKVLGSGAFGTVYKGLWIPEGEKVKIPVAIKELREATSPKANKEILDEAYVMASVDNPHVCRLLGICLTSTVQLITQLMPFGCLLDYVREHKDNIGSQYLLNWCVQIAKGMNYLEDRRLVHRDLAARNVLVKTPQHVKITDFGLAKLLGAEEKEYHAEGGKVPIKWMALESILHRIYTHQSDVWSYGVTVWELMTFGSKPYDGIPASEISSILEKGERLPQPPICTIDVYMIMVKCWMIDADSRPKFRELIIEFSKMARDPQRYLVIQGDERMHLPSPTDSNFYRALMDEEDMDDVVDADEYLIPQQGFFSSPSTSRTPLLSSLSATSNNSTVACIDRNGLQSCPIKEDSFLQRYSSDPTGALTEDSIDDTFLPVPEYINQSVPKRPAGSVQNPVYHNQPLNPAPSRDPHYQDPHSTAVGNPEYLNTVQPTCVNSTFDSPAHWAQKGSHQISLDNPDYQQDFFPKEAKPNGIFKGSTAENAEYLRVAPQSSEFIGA

[3] = target: T2, Phospho-EGFR (Tyr1068) in H1975 C797S cells (CRISPR-edited EGFR C797S) (Homo sapiens, UniProt P00533, C797S/L858R/T790M); assay: HTRF pEGFR/total EGFR in H1975 C797S cells; format: cell-based; conditions: ratio pEGFR/total EGFR, compound 3 hours
T2 construct: host or cells: H1975 C797S (CRISPR-edited)
T2 sequence (P00533 25-1210 T790M/C797S/L858R): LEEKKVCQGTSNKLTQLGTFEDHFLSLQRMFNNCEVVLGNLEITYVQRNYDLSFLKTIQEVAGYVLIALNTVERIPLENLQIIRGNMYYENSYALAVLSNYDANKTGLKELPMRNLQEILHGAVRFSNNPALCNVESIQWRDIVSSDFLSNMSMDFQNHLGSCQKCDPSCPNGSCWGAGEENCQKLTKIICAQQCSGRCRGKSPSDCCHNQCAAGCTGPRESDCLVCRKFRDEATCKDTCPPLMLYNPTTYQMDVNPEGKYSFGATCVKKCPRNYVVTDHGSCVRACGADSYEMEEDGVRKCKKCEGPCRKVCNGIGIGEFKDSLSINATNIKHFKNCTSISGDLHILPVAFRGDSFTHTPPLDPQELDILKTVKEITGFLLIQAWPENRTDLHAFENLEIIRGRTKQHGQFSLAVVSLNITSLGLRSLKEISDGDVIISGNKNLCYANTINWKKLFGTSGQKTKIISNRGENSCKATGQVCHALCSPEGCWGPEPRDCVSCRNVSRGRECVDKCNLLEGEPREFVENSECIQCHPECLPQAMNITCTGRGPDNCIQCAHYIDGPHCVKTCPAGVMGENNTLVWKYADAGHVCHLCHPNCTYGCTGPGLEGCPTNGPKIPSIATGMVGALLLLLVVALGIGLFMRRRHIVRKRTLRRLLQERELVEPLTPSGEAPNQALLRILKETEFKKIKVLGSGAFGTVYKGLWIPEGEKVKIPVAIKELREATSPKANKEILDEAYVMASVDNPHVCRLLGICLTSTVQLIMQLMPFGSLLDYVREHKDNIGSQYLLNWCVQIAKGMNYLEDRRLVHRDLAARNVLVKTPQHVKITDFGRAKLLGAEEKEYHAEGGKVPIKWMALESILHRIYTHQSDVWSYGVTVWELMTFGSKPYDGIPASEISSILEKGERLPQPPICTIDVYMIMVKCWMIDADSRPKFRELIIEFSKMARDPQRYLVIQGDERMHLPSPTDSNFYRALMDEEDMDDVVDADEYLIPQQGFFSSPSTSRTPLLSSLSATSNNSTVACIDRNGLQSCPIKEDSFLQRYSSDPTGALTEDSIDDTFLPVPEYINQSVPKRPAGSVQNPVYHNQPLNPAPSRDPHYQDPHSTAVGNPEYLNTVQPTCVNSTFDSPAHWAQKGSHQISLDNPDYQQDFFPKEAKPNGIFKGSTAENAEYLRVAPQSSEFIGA
Procedure: as §1, with “[…]. Once” for “H1975 cells (ATCC CRL-5908) were plated at 20,000 cells per well in 96 well plates and placed at 37° C. 5% CO2. Once”, “buffer was” for “buffer is”, “Phospho-EGFR (Tyr1068)” for “Phospho-EGFR (Tyri068)”

[4] = target: T3, Phospho-EGFR (Tyr1068) in A431 cells (Homo sapiens, UniProt P00533); assay: HTRF pEGFR/total EGFR in A431 cells with EGF stimulation; format: cell-based; conditions: ratio pEGFR/total EGFR, compound 2.5 hours then 100 ng/ml EGF 30 mins
T3 construct: endogenous in cells; host or cells: A431
T3 sequence (P00533 25-1210): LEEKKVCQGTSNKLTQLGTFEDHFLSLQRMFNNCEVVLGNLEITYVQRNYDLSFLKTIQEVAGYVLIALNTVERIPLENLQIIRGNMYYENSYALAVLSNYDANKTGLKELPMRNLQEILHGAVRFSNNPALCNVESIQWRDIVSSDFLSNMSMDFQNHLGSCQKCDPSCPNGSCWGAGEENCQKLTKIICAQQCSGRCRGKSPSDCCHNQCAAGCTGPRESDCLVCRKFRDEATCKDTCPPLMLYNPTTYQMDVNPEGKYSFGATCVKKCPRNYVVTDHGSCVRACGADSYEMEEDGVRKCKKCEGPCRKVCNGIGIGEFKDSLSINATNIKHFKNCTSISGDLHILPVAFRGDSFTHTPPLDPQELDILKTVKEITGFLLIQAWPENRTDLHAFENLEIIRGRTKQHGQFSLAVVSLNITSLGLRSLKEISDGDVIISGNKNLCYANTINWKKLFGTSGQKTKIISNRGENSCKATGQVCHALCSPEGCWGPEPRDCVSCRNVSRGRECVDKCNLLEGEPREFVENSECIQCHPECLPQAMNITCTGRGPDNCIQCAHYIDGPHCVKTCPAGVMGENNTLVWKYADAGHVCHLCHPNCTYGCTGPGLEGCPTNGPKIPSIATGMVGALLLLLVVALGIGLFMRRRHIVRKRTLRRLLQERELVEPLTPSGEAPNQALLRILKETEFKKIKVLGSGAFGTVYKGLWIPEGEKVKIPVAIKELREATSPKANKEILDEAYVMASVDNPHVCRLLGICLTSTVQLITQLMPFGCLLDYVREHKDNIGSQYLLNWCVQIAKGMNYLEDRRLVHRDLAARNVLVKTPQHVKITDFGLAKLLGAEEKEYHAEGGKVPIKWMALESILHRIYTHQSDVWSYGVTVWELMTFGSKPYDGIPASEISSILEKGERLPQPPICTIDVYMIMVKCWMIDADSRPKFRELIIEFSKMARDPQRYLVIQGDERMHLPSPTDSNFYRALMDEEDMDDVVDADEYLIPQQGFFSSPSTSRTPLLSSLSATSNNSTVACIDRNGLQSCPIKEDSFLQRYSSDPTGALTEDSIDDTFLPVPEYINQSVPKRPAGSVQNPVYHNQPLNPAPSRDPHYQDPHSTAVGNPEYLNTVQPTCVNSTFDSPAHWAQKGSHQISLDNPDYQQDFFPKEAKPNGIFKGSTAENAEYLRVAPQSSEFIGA
Procedure: Cells were plated at 20,000 cells per well in 96 well plates and placed at 37° C. 5% CO2. Once adhered (after 24 h) cells were treated with compounds dissolved in DMSO at a final concentration of 0.1% DMSO in media. Compounds were diluted in media then added to cells for 2.5 hours in duplicate, 100 ng/ml EGF (ThermoFisher, PHG0311) was added to all compound treated cells as well as a control for 30 mins. Compound and media were removed from the cells, then 50 ul of HTRF lysis buffer was added (lysis buffer was diluted from 4× stock to 1× in DI water, with 1% blocking agent also added). Cells were lysed on a plate shaker (2000 rpm) for 30 minutes at room temperature. pEGFR expression was monitored using the Cisbio Phospho-EGFR (Tyr1068) cellular kit (64EG1PEH). Total EGFR expression was monitored using the Cisbio Total EGFR cellular kit (64NG1PEH) as per manufacturer's instructions. Fluorescence emission was read at two different wavelengths (665 nm and 620 nm) on a PheraStar. Results were calculated as ratio of pEGFR/total EGFR and then percentage of 0 μM control.

T1 sequence (P00533 25-1210 T790M/L858R): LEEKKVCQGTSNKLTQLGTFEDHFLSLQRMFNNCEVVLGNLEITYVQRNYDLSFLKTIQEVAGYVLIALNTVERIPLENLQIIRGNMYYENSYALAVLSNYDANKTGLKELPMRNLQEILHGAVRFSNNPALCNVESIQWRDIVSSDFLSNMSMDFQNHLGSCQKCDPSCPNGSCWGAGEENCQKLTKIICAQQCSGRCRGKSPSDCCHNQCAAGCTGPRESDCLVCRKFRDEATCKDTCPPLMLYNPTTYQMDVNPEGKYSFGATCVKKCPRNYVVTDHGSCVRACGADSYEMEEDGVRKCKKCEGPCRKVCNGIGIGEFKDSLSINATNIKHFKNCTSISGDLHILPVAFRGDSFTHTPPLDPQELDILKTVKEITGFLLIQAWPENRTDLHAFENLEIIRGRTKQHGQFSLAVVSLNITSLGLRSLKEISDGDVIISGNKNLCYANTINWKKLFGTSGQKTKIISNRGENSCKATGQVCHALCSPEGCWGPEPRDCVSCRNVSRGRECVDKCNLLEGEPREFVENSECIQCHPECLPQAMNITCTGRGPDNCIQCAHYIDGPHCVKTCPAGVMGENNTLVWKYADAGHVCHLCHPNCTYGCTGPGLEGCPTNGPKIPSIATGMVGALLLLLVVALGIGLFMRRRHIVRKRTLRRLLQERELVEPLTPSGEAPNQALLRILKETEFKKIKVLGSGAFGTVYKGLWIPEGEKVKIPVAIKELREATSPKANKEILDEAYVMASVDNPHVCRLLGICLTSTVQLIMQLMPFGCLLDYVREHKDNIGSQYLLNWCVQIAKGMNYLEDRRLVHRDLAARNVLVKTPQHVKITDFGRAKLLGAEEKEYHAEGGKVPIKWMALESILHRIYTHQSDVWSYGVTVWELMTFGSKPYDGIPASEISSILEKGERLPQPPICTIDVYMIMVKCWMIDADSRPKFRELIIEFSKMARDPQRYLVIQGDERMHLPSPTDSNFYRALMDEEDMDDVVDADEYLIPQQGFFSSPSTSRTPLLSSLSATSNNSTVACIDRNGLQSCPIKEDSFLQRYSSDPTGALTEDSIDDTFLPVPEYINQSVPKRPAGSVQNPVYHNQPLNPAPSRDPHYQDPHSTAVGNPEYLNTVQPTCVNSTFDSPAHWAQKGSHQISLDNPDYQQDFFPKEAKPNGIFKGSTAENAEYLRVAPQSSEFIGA

Row | Compound | IC50 [1] [µM] | IC50 [2] [µM] | IC50 [3] [µM] | IC50 [4] [µM]
1 | C#Cc1cc(=O)n(-c2ccccc2)c2nc(Nc3ccc(N4CCC(N5CC(C(C)(C)O)C5)CC4)cc3)ncc12 [Example 40, 5-Ethynyl-2-[(4-{4-[3-(2-hydroxypropan-2-yl)azetidin-1-yl]piperidin-1-yl}phenyl)amino]-8-phenylpyrido[2,3-d]pyrimidin-7-one] | < 0.5 | < 1 | < 0.5 | 1 to 3
2 | C#Cc1cc(=O)n(C)c2nc(Nc3ccc(N(C)CCN(C)C)cc3)ncc12 [Example 43, 2-[(4-{[2-(Dimethylamino)ethyl](methyl)amino}phenyl)amino]-5-ethynyl-8-methylpyrido[2,3-d]pyrimidin-7-one] | < 0.5 | 1 to 10 | < 0.5 | > 3
3 | C#Cc1cc(=O)n(C)c2nc(Nc3cc(-c4cnn(C)c4)c(N4CCOCC4)cc3OC)ncc12 [Example 44, 5-Ethynyl-2-{[2-methoxy-5-(1-methylpyrazol-4-yl)-4-(morpholin-4-yl)phenyl]amino}-8-methylpyrido[2,3-d]pyrimidin-7-one] | 0.5 to 1 | < 1 | 1 to 3 | > 3
4 | C#Cc1cc(=O)n(C)c2nc(Nc3ccc(N(C)CCN(C)C)c(-c4cnn(C)c4)c3)ncc12 [Example 47, 2-[(4-{[2-(Dimethylamino)ethyl](methyl)amino}-3-(1-methylpyrazol-4-yl)phenyl)amino]-5-ethynyl-8-methylpyrido[2,3-d]pyrimidin-7-one] | < 0.5 | < 1 | 0.5 to 1 | > 3
5 | C#Cc1cc(=O)n(C)c2nc(Nc3cccc(N(C)CCN(C)C)c3)ncc12 [Example 52, 2-[(3-{[2-(Dimethylamino)ethyl](methyl)amino}phenyl)amino]-5-ethynyl-8-methylpyrido[2,3-d]pyrimidin-7-one] | < 0.5 | < 1 | < 0.5 | > 3
6 | C#Cc1cc(=O)n(C)c2nc(Nc3cccc(N(C)C(=O)CN(C)C)c3)ncc12 [Example 53, 2-(Dimethylamino)-N-[3-({5-ethynyl-8-methyl-7-oxopyrido[2,3-d]pyrimidin-2-yl}amino)phenyl]-N-methylacetamide] | > 3 | 1 to 10 | > 3 | > 3
7 | C#Cc1cc(=O)n(-c2cccc([N+](=O)[O-])c2)c2nc(Nc3ccccc3OC)ncc12 [Example 54, 5-Ethynyl-2-((2-methoxyphenyl)amino)-8-(3-nitrophenyl)pyrido[2,3-d]pyrimidin-7(8H)-one] | > 3 | > 10 | > 3 | > 3
8 | C#Cc1cc(=O)n(-c2cccc(N)c2)c2nc(Nc3ccccc3OC)ncc12 [Example 55, 8-(3-Aminophenyl)-5-ethynyl-2-((2-methoxyphenyl)amino)pyrido[2,3-d]pyrimidin-7(8H)-one] | 1 to 3 | 1 to 10 | > 3 | > 3
9 | C#Cc1cc(=O)n(-c2cccc(NC(=O)COC(C)=O)c2)c2nc(Nc3ccccc3OC)ncc12 [Example 59, 2-((3-(5-Ethynyl-2-((2-methoxyphenyl)amino)-7-oxopyrido[2,3-d]pyrimidin-8(7H)-yl)phenyl)amino)-2-oxoethyl acetate] | > 3 | 1 to 10 | > 3 | > 3
10 | C#Cc1cc(=O)n(-c2ccc(N)cc2)c2nc(Nc3ccccc3OC)ncc12 [Example 61, 8-(4-Aminophenyl)-5-ethynyl-2-((2-methoxyphenyl)amino)pyrido[2,3-d]pyrimidin-7(8H)-one] | > 3 | < 1 | > 3 | > 3
11 | C#Cc1cc(=O)n(-c2ccc(NC(=O)COC(C)=O)cc2)c2nc(Nc3ccccc3OC)ncc12 [Example 64, 2-((4-(5-Ethynyl-2-((2-methoxyphenyl)amino)-7-oxopyrido[2,3-d]pyrimidin-8(7H)-yl)phenyl)amino)-2-oxoethyl acetate] | > 3 | 1 to 10 | > 3 | > 3
12 | C#Cc1cc(=O)n(-c2ccc(NC(=O)CC)cc2)c2nc(Nc3ccccc3OC)ncc12 [Example 65, N-(4-(5-Ethynyl-2-((2-methoxyphenyl)amino)-7-oxopyrido[2,3-d]pyrimidin-7(8H)-yl)phenyl)propionamide] | > 3 | 1 to 10 | > 3 | > 3

More lines, now with the values ahead:

Row | IC50 [1] [µM] | IC50 [2] [µM] | IC50 [3] [µM] | IC50 [4] [µM] | Compound
13 | < 0.5 | < 1 | < 0.5 | > 3 | C#Cc1cc(=O)n(C)c2nc(Nc3ccc(N4CCN(C)CC4)cc3)ncc12 [Example 45, 5-Ethynyl-8-methyl-2-{[4-(4-methylpiperazin-1-yl)phenyl]amino}pyrido[2,3-d]pyrimidin-7-one]
14 | < 0.5 | 1 to 10 | < 0.5 | > 3 | C#Cc1cc(=O)n(C)c2nc(Nc3ccc(OCCN(C)C)cc3)ncc12 [Example 46, 2-({4-[2-(Dimethylamino)ethoxy]phenyl}amino)-5-ethynyl-8-methylpyrido[2,3-d]pyrimidin-7-one]
15 | < 0.5 | < 1 | 0.5 to 1 | > 3 | C#Cc1cc(=O)n(C)c2nc(Nc3ccc(N4CCN(C)CC4)cc3OC)ncc12 [Example 49, 5-Ethynyl-2-{[2-methoxy-4-(4-methylpiperazin-1-yl)phenyl]amino}-8-methylpyrido[2,3-d]pyrimidin-7-one]
16 | < 0.5 | < 1 | 0.5 to 1 | > 3 | C#Cc1cc(=O)n(C)c2nc(Nc3ccc(N4CCN(C)CC4)c(NC(C)=O)c3)ncc12 [Example 50, N-[5-({5-Ethynyl-8-methyl-7-oxopyrido[2,3-d]pyrimidin-2-yl}amino)-2-(4-methylpiperazin-1-yl)phenyl]acetamide]
17 | < 0.5 | < 1 | < 0.5 | 1 to 3 | C#Cc1cc(=O)n(C)c2nc(Nc3ccc(N4CCN(C)CC4)c(NC(=O)CC)c3)ncc12 [Example 51, N-[5-({5-Ethynyl-8-methyl-7-oxopyrido[2,3-d]pyrimidin-2-yl}amino)-2-(4-methylpiperazin-1-yl)phenyl]propanamide]
18 | > 3 | 1 to 10 | > 3 | > 3 | C#Cc1cc(=O)n(-c2ccc([N+](=O)[O-])cc2)c2nc(Nc3ccccc3OC)ncc12 [Example 60, 5-Ethynyl-2-((2-methoxyphenyl)amino)-8-(4-nitrophenyl)pyrido[2,3-d]pyrimidin-7(8H)-one]
19 | > 3 | 1 to 10 | > 3 | > 3 | C#Cc1cc(=O)n(-c2ccc(NC(C)=O)cc2)c2nc(Nc3ccccc3OC)ncc12 [Example 62, N-(4-(5-Ethynyl-2-((2-methoxyphenyl)amino)-7-oxopyrido[2,3-d]pyrimidin-8(7H)-yl)phenyl)acetamide]
20 | > 3 | < 1 | > 3 | > 3 | C#Cc1cc(=O)n(-c2ccc(NS(C)(=O)=O)cc2)c2nc(Nc3ccccc3OC)ncc12 [Example 63, N-(4-(5-Ethynyl-2-((2-methoxyphenyl)amino)-7-oxopyrido[2,3-d]pyrimidin-7(8H)-yl)phenyl)methanesulfonamide]
21 | > 3 | 1 to 10 | > 3 | > 3 | C#Cc1cc(=O)n(-c2ccc(NC(=O)C3CC3)cc2)c2nc(Nc3ccccc3OC)ncc12 [Example 66, N-(4-(5-Ethynyl-2-((2-methoxyphenyl)amino)-7-oxopyrido[2,3-d]pyrimidin-8(7H)-yl)phenyl)cyclopropanecarboxamide]

From patent publication US20260137703A1, “2-AMINO-PYRIDO[2,3-D]PYRIMIDIN-7(8H)-ONE AND 7-AMINO-1-PYRIMIDO[4,5-D]PYRIMIDIN-2(1 H)-ONE DERIVATIVES AS EGFR INHIBITORS FOR THE TREATMENT OF CANCER” (Cancer Research Technology Limited, priority 2022, published 2026)
